Results from ChEMBL document CHEMBL1201862, “PubChem BioAssay data set” (2004).
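Assay format: 96-well plates, 48-hour exposure. GI50: concentration for 50% inhibition of growth.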 Activity calls are given as the source filed them. No stated cut-off is given here; in the data, active = GI50 up to about 1.1 µM and inactive = higher.

What was measured:
Assay in all cases: NCI anticancer screen, dose series, 48 h
UACC-257 = system: UACC-257
RPMI-8226 = system: RPMI-8226
UACC-62 = system: UACC-62
COLO 205 = system: COLO 205
M19-MEL = system: M19-MEL
K562 = system: K562
SNB-19 = system: SNB-19
OVCAR-5 = system: OVCAR-5
A549 = system: A549
SN12C = system: SN12C
KM-20L2 = system: KM-20L2
SF-295 = system: SF-295
DMS-114 = system: DMS-114
SF-268 = system: SF-268
OVCAR-4 = system: OVCAR-4
HT-29 = system: HT-29
HOP-92 = system: HOP-92
SK-MEL-5 = system: SK-MEL-5
SK-MEL-28 = system: SK-MEL-28
IGROV-1 = system: IGROV-1
SF-539 = system: SF-539
NCI-H460 = system: NCI-H460
LXFL 529 = system: LXFL 529
LOX IMVI = system: LOX IMVI
OVCAR-3 = system: OVCAR-3
SK-OV-3 = system: SK-OV-3
KM12 = system: KM12
TK-10 = system: TK-10
HCC 2998 = system: HCC 2998
M14 = system: M14
XF498 = system: XF498
HCT-116 = system: HCT-116
RXF 393 = system: RXF 393
U-251 = system: U-251
CCRF-CEM = system: CCRF-CEM
DLD-1 = system: DLD-1
SW-620 = system: SW-620
EKVX = system: EKVX
ACHN = system: ACHN
HL-60 = system: HL-60
RXF 631 = system: RXF 631
786-0 = system: 786-0
HCT-15 = system: HCT-15
A498 = system: A498
UO-31 = system: UO-31
Malme-3M = system: Malme-3M
OVCAR-8 = system: OVCAR-8
HOP-62 = system: HOP-62
MOLT-4 = system: MOLT-4
SNB-78 = system: SNB-78
NCI-H23 = system: NCI-H23
SNB-75 = system: SNB-75
DMS-273 = system: DMS-273
NCI-H226 = system: NCI-H226
CAKI-1 = system: CAKI-1
NCI-H522 = system: NCI-H522
SR = system: SR

For `COC(=O)[C@@H]1C(=O)O[C@@H](c2ccc(OC)c(OC)c2OC)[C@@H]1C(=O)OC.COC(=O)[C@H]1C(=O)O[C@@H](c2ccc(OC)c(OC)c2OC)[C@@H]1C(=O)OC`, the GI50 (UACC-257) was > 100 µM (inactive), the GI50 (RPMI-8226) was > 100 µM (inactive) and the GI50 (UACC-62) was > 100 µM (inactive). The GI50 (COLO 205) was > 100 µM (inactive), the GI50 (M19-MEL) was > 100 µM (inactive) and the GI50 (K562) was > 100 µM (inactive). For the same compound, the GI50 (SNB-19) was > 100 µM (inactive), the GI50 (OVCAR-5) was > 100 µM (inactive) and the GI50 (A549) was > 100 µM (inactive). The GI50 (SN12C) was > 100 µM (inactive), the GI50 (KM-20L2) was > 100 µM (inactive) and the GI50 (SF-295) was > 100 µM (inactive). The GI50 (DMS-114) was > 100 µM (inactive), the GI50 (SF-268) was > 100 µM (inactive) and the GI50 (OVCAR-4) was > 100 µM (inactive). For the same compound, the GI50 (HT-29) was > 100 µM (inactive), the GI50 (HOP-92) was > 100 µM (inactive) and the GI50 (SK-MEL-5) was > 100 µM (inactive). The GI50 (SK-MEL-28) was > 100 µM (inactive), the GI50 (IGROV-1) was > 100 µM (inactive) and the GI50 (SF-539) was > 100 µM (inactive). For the same compound, the GI50 (NCI-H460) was > 100 µM (inactive), the GI50 (LXFL 529) was > 100 µM (inactive) and the GI50 (LOX IMVI) was > 100 µM (inactive). For the same compound, the GI50 (OVCAR-3) was > 100 µM (inactive), the GI50 (SK-OV-3) was > 100 µM (inactive) and the GI50 (KM12) was > 100 µM (inactive). For the same compound, the GI50 (TK-10) was > 100 µM (inactive), the GI50 (HCC 2998) was > 100 µM (inactive) and the GI50 (M14) was > 100 µM (inactive). For the same compound, the GI50 (XF498) was > 100 µM (inactive), the GI50 (HCT-116) was > 100 µM (inactive) and the GI50 (RXF 393) was > 100 µM (inactive). For the same compound, the GI50 (U-251) was > 100 µM (inactive), the GI50 (CCRF-CEM) was > 100 µM (inactive) and the GI50 (DLD-1) was > 100 µM (inactive). The GI50 (SW-620) was > 100 µM (inactive), the GI50 (EKVX) was > 100 µM (inactive) and the GI50 (ACHN) was > 100 µM (inactive). For the same compound, the GI50 (HL-60) was > 100 µM (inactive), the GI50 (RXF 631) was > 100 µM (inactive) and the GI50 (786-0) was > 100 µM (inactive). The GI50 (HCT-15) was over 100 µM, the GI50 (A498) was > 100 µM (inactive) and the GI50 (UO-31) was > 100 µM (inactive). The GI50 (Malme-3M) was > 100 µM (inactive), the GI50 (OVCAR-8) was > 100 µM (inactive) and the GI50 (HOP-62) was > 100 µM (inactive). For the same compound, the GI50 (MOLT-4) was > 100 µM (inactive), the GI50 (SNB-78) was > 100 µM (inactive) and the GI50 (NCI-H23) was > 100 µM (inactive). The GI50 (SNB-75) was > 100 µM (inactive), the GI50 (DMS-273) was > 100 µM (inactive) and the GI50 (NCI-H226) was > 100 µM (inactive). For the same compound, the GI50 (CAKI-1) was > 100 µM (inactive), the GI50 (NCI-H522) was > 100 µM (inactive) and the GI50 (SR) was > 100 µM (inactive).
